Source: patent US9109041B2, “Analog compounds of analgesic peptides derived from the venom of crotalus durissus terrificus snakes, their uses, compositions, methods of preparation and purification” (priority 2004, dated 2015)

Test system: thermal nociception (hot plate 50° C.)
Assay: hot plate test
Format: in vivo, mice
Details: for latency time (reaction time), FM (s) ± S.E.M.: 2 hours after treatment; for latency time (reaction time), IM (s) ± S.E.M.: before treatment
Description: This test is used for evaluation of drugs that interfere with nociception in the Central Nervous System, as for example, morphine and derived products, since the thermal stimulus activates directly the nociceptor, avoiding tissue lesion and consequent inflammation. The data obtained in this test indicate that the antinociceptive effect of a compound is mainly due to a supraspinally integrated response.
This test was performed in accordance to the method described by Jacob, J. J. C. and Ramabadran, K. (Br. J. Pharmacol., 64:91-8, 1978). For this test, mice were placed on a metal surface kept at 50° C.±1. Results are expressed as the latency time (in seconds—s) to observe the licking of both anterior feet (reaction time). This test was applied before (initial measurement—IM) and 2 hours after the treatment of the animals (final measurement—FM) with saline (control) or with the synthetic peptide (1 and 3 μg/kg in 200 μl), orally. Each animal was considered as their own control. The results were analyzed comparing the mean values of the IM and FM or, when determined, by comparing the mean values obtained in the different experimental groups (Table 22).

Xaa-Phe-Ser-Pro-Glu-Asn-Cys-Gln-Gly-Glu-Ser-Gln-Pro-Cys [SEQ ID NO: 2]
latency time (reaction time), FM (s) ± S.E.M. (1 μg/kg p.o.): 25 ± 0.68 s
latency time (reaction time), IM (s) ± S.E.M. (1 μg/kg p.o.): 18 ± 0.64 s
latency time (reaction time), FM (s) ± S.E.M. (3 μg/kg p.o.): 27 ± 1.06 s
latency time (reaction time), IM (s) ± S.E.M. (3 μg/kg p.o.): 22 ± 1.01 s
